For experiment [1], the system named is primed T cells. The experiment can be described thus: proliferation of TCR-stimulated primed T cells (3H-thymidine incorporation). The experiment is classed as cell-based, mouse (BALB/c). The settings on record: primed T cells + anti-CD3ε 2C11, α-MSH present, 3H-thymidine at 24 h, counted at 48 h. (Dividing cells build labelled thymidine or BrdU into new DNA.)

Experiment [2] concerns primed T cells. As to the kind of experiment: total TGF-β production by TCR-stimulated primed T cells, Mv1Lu (CCL-64) bioassay. The conditions noted are these: 48 h. The experiment is classed as cell-based, mouse (BALB/c). How it is done: TGF-β bioassay. To measure total TGF-β, 100 μl of conditioned media was pretreated according to standard procedures (24) with 10 μl 1N HCL to lower the media pH to 2 and incubated for 1 hour at 4° C. The acid was neutralized with 20 μl of a 1:1 mixture of 1N NaOH: 1M HEPES returning the culture supernatant to a pH 7.3. The transiently acidified conditioned media was then used in the Mv1Lu assay; diluted 1:4 in EMEM+0.5% FBS. To the wells of a Falcon 96-well flat-bottom plate, 100 μl of diluted transiently acidified samples were added with 100 μl of 1×10^5 Mv1Lu cells (CCL-64; ATCC, Rockville, Md.). The plate was incubated for 20 hours at 37° C., 5% CO2 followed by the addition of 20 μl of 50 μCi/ml 3H-thymidine and the plate was incubated for an additional 4 hours. Supernatant was discarded and 50 μl of 10× Trypsin-EDTA (Biowhittaker, Walkersville, Md.) solution was added to each well and the plate was incubated for 15 minute at 37° C. The cells were collected onto filter paper using a Tomtec Plate Harvester 96 and counts per minute (CPM) of incorporation 3H-thymidine was measured using a Wallac 1205 Betaplate Liquid Scintillation Counter. Cultures of known amounts of purified activated TGF-β1, 20 ng/ml to 0.2 pg/ml (R&:D Systems), were prepared in the same plate for calculating a standard curve to quantify the concentration of total TGF-β in the samples.
Primed T Cell In Vitro Assays. From draining lymph nodes of BALB/c mice immunized 7 days previously with MT-Ag, primed T cells were isolated using CD3 enrichment columns (R&D Systems). T-cells (4×10^5 cells) suspended in serum-free media were added to the wells of a 96 well, round bottom plate (Corning). To the wells were added α-MSH (30 pg/ml) and anti-TCR antibody (2C11; 1 μg/ml) diluted in serum-free culture media. Various concentrations of TGF-β1 or TGF-β2 in media were added. In a second set of experiments TGF-β1 or TGF-β2 at a fixed concentration of 5 ng/ml were added to the wells at various times (0, 2, 4 and 6 hours) after addition of anti-TCR antibody. The cultures were incubated for 24 hours and 0.5 μCi of 3H-thymidine (NEM, Boston, Mass.) was added to the wells and the cultures were incubated for an additional 24 hours. The cells were collected and incorporated radiolabeled was measured by scintillation counting. Production of TGF-β by the treated primed T cells was done by centrifuging the culture plates 24 hours after the addition of anti-TCR antibody, removing the supernatant, washing the cultures once and adding fresh media. […]
FIG. 4 is a bar graph of TGF-β production by primed T cells TCR-stimulated in the presence of α-MSH. […] Significance (p=0.05) was determined by Student's t-test between TGF-β concentrations in cultures of activated α-MSH treated T cells and T cells activated in the absence of α-MSH. […]

Experiment [3] deals with experimental autoimmune uveitis. As to the kind of experiment: EAU, α-MSH injected i.v. at the time of peak retinal inflammation. The class given is in vivo, mouse.
A further experiment concerns CD25+ CD4+ T cells. As to the kind of experiment: two-color flow cytometry for CD4 and CD25 on activated primed T cells. The experiment is classed as cell-based, mouse. The conditions noted are these: TCR-stimulated in the presence or absence of α-MSH 30 pg/ml, 24 hours. The method, then: In another example, for immunostaining and fluorescence-activated cell sorting, T cells (2×10^6 cells) from 24 hour cultures of the α-MSH-treated activated T cells were centrifuged and washed once in PBS/BSA buffer (10 mM PBS, 3% BSA). The cells were resuspended in 50 μl of PBS/BSA buffer containing 2 μg of PE-conjugated anti-CD4 and FITC-conjugated anti-CD25 antibodies and incubated for 30 minutes room temperature. The cells were centrifuged, resuspended in 1 ml of PBS/BSA buffer, and washed two times. The stained cells were sorted by a Coulter ELITE cell sorter calibrated for two color fluorescence. The cells were sorted into two populations, CD25^+ CD4^+ cells and the remaining cells (all CD4^− cells plus CD25^−CD4^+ cells). The sorted cells were used immediately in the in vitro regulatory T cell assay.
α-MSH induced CD25^+ CD4^+ regulatory T cells. To characterize the regulatory T cells induced by α-MSH, we assayed through flow cytometry the possibility that α-MSH induces CD25^+ (IL-2Rα) CD4^+ regulatory T cells. […] The cells were analyzed by two-color flow cytometry after staining with anti-CD4 and anti-CD25. Presented is a representative dot plot of the flow cytometry seen in four separate staining experiments. (B) Only T cells activated in the presence of α-MSH, were stained and sorted based on the coexpression of CD4 and CD25. […]
On the technique in general: In flow cytometry, cells or beads pass a laser one at a time.

A further experiment concerns EAU. The conditions noted are these: direct injections into eyes of mice; cited from earlier work.

Entries after “also recorded” stand apart in the source; their conditions may differ. No end group written: not given here.

“α-melanocyte stimulating hormone (SYSMEHFRWGKPV; not fully specified; ends and bridges not checked; UniProt P01189 138-150, looked up) [α-MSH, synthetic α-MSH (Peninsula Laboratories); thirteen-amino acid neuropeptide derived from POMC]”: the “TCR-stimulated T cell proliferation” value in the experiment with primed T cells [1] is given as “no affect; also recorded: no effect”. Besides, in the experiment with primed T cells [2] (serum-free, transiently acidified supernatant), the “TGF-β production by TCR-stimulated primed T cells” value is “enhanced levels; also recorded: significantly enhanced”. The “threshold of α-MSH concentration needed to induce TGF-β1 production” value with primed T cells [2] (TCR-stimulated T cells) is 30 pg/mL. Moreover, in experiment [3], the “severity of experimental autoimmune uveitis (EAU)” value is on record as “significantly suppressed”. The “percentage of CD25+ CD4+ cells” value with CD25+ CD4+ T cells is “did not change”. Also, in the experiment on EAU, the “severity of inflammation and recovery in EAU” value is “suppress the severity of the inflammation and accelerate recovery”.

(Values after patent US20060127400A1, “Activation of regulatory T cells by alpha-melanocyte stimulating hormone” (THE SCHEPENS EYE RESEARCH INSTITUTE, INC., priority 1999, published 2006).)
